From article PMC11173382, “In Vitro Investigations into the Potential Drug Interactions of Pseudoginsenoside DQ Mediated by Cytochrome P450 and Human Drug Transporters” (Molecules, 2024)

How the values were obtained:
hMDR1(P-gp) = target: T1, hMDR1(P-gp) (Homo sapiens, UniProt P08183); experiment: MDCK II-MDR1 drug transport assay (3H-digoxin); assay type: in vitro ADME; settings: for Transport activity of P-gp (main text: percentage inhibition): negative control = 100%
T1 construct: host or cells: MDCKII-MDR1
T1 sequence (P08183 whole entry): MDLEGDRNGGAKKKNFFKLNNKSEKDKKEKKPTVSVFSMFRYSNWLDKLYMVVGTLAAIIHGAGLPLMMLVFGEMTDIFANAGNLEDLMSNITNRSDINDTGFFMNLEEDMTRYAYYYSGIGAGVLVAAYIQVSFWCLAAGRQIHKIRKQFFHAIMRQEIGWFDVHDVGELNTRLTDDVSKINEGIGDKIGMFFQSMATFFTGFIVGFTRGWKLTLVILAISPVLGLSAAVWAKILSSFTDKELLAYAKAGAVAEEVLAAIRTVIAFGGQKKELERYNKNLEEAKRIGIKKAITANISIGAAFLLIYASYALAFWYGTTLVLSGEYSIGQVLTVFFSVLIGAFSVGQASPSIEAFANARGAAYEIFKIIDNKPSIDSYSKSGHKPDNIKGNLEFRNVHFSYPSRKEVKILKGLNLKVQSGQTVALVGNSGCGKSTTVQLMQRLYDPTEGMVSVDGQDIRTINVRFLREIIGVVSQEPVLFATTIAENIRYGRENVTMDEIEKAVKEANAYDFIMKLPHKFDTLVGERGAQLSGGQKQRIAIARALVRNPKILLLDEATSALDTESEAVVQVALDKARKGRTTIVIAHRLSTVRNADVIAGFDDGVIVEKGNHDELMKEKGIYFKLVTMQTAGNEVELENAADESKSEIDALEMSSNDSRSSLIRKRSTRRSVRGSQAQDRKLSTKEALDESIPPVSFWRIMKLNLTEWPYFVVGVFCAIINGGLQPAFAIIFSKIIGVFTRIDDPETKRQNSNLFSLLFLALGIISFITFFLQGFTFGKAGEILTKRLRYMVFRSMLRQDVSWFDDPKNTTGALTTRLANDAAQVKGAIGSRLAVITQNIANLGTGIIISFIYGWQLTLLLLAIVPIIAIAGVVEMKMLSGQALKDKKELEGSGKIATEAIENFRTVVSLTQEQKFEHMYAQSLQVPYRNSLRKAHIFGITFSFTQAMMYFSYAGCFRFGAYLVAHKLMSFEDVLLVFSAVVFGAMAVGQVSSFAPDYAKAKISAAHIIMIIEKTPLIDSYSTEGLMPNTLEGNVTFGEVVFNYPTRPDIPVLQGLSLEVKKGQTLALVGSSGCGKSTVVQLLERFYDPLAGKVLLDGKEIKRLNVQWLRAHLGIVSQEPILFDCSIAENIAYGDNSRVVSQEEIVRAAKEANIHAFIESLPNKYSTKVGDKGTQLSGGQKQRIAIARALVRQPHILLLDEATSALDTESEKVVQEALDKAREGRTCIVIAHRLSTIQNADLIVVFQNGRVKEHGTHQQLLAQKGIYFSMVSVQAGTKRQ
Source text: (§1) Drug transporters mediate the cellular uptake and efflux of their substrates. Therefore, cell lines overexpressing a drug transporter can be utilized to investigate inhibitors of the transporter by assessing changes in substrate uptake. For each drug transporter, we selected a well-characterized inhibitor as the positive control. Radiolabeled substrates were used to indicate the decrease in transport efficiency when the drug transporters were inhibited by PDQ or the control inhibitors.
(§2) The concentrations of the control drugs and the substrates were stated in the assay details. Working solutions of the control inhibitors, the radiolabeled substrates, and each dose of PDQ were prepared at 200 times (200×) more concentrated solutions with DMSO for further dilution.
(§3) Transporter-overexpressed cell lines. Human organic anion transporter-overexpressed cell lines MDCKII-OAT1 and S2-OAT3, human organic anion transport polypeptide-overexpressed cell lines HEK293A-OATP1B1 and HEK293A-OATP1B3, human organic cation transporter 2-overexpressed cell line S2-OCT2, and human multi-drug resistance protein MDR1 (or P-gp)-overexpressed cell line MDCKII-MDR1 were gifts from Japan Fuji Biomedical Co., Ltd. (Fuji, Shizuoka Prefecture, Japan). Breast cancer resistance protein-overexpressed vesicles (sf9-BCRP vesicle) were purchased from GenoMembrane Co., Ltd. (Yokohama, Kanagawa, Japan).
All reagents were pre-warmed to 37 °C. […] The plate was incubated for 20 min. […] Each sample was replicated three times (N = 3).
(§4) In = [100 × (U − U0)/(Uc − U0)]%(3)
The results were expressed as mean ± standard deviation (SD) and analyzed with GraphPad Prism 8.0 software (CA, USA). The IC50 of PDQ was curve-fitted with the FORECAST function.

hOATP1B1 = target: T2, hOATP1B1 (Homo sapiens, UniProt Q9Y6L6); experiment: Substrates uptake assay, HEK293A-OATP1B1 cells (3H-ES); assay type: in vitro ADME; settings: for Transport activity of OATP1B1 (main text: percentage inhibition): negative control = 100%
T2 sequence (Q9Y6L6 1-691): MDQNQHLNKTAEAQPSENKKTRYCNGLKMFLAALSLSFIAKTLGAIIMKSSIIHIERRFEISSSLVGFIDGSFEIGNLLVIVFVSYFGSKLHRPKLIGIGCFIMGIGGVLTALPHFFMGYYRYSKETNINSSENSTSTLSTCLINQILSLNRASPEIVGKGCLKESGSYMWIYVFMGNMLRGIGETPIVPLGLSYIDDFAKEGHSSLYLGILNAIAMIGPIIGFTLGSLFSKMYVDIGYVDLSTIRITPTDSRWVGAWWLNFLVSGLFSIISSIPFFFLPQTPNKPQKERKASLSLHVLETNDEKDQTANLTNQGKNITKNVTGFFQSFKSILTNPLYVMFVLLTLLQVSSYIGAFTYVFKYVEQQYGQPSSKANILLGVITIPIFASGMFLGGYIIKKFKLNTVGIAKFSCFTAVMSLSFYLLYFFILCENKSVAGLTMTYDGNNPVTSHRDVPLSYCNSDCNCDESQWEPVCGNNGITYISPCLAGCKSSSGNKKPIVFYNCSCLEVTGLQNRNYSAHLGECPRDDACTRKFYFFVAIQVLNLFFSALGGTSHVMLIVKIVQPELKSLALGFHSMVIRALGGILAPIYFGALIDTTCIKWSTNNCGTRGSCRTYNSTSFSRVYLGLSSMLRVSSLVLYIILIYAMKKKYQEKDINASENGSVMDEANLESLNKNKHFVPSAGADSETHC
Source text: as §1, §2, §3
Substrates uptake assay. In this assay, we studied the inhibition of PDQ against transporters OAT1, OAT3, OCT2, OATP1B1 and OATP1B3 with MDCKII-OAT1, S2-OAT3, S2-OCT2, HEK293A-OATP1B1and HEK293A-OATP1B3 cells, respectively. The radiolabeled substrates for OAT1, OAT3, OATP1B1, OATP1B3 and OCT2 were […], respectively (Table 5). Probenecid ([…]) was the positive control inhibitor of OAT1 and OAT3, while rifampicin ([…]) served as the control drug of OATP1B1 and OATP1B3. For OCT2, we used […] cimetidine to compare with the inhibitory effect of PDQ. Two times (2×) more concentrated working solutions of the drugs and the substrate were prepared with Dulbecco’s phosphate-buffered saline (DPBS, Gibco, Grand Island, NY, USA.). Then, an equal volume of 2× drug solution and 2× radiolabeled substrate solution were mixed as the working mix. All reagents were pre-warmed to 37 °C.
The cells were digested with 0.05% trypsin/EDTA. The density of the single-cell suspension was adjusted to 2.0 × 10^5 cells/mL for S2 cells and to 1.5 × 10^5 cells/mL for MDCK II and HEK293A cells. The cell suspension was then added to the reservoirs of the 24-well plate for culture until full confluency. The medium in the wells was removed, and the wells were washed with DPBS. Then, the plate was incubated for 10 min with pre-warmed DPBS in the wells. After removing DPBS, […] of working mix was added to each well to initiate the substrate uptake process. The reaction time was 5 min for S2-OCT2 cells, while the other four types of cells were incubated with the reaction mix for 2 min. Cold DPBS was used to terminate the substrate transportation. To each well, […] NaOH ([…]) was added to lyse the cells. Then, […] cell lysate was transferred to the counting vials, and 3 mL scintillation cocktail (Aquasol-2, PerkinElmer, Waltham, MA, USA) was added. […] Each sample was replicated three times (N = 3).
as §4
The results were expressed as mean ± standard deviation (SD) and analyzed with GraphPad Prism 8.0 software (CA, USA). The IC50 of PDQ was curve-fitted with the FORECAST function. Statistical significance was calculated using a two-tailed test, and a p value < 0.05 was considered as significant.

In the case of `CC(C)(O)[C@@H]1CC[C@@](C)([C@H]2CC[C@]3(C)[C@@H]2[C@H](O)C[C@@H]2[C@@]4(C)CC[C@H](O)C(C)(C)[C@@H]4CC[C@]23C)O1` [PDQ, (20S,24S)-dammar-20,24-epoxy-3β, 12β, 25-triol], the IC50 (hMDR1(P-gp); MDCKII-MDR1, 25 μM 3H-digoxin, 15 min) is reported as 410 nM, the “Transport activity of P-gp (main text: percentage inhibition)” value (hMDR1(P-gp); inhibitor 0.1 μM) is reported as 57.5±7.1% and the “Transport activity of P-gp (main text: percentage inhibition)” value (hMDR1(P-gp); inhibitor 0.3 μM) is reported as 57.0±9.2%. For the same compound, the “Transport activity of P-gp (main text: percentage inhibition)” value (hMDR1(P-gp); inhibitor 1 μM) was 30.8±6.4%, the “Transport activity of P-gp (main text: percentage inhibition)” value (hMDR1(P-gp); inhibitor 3 μM) was 23.2±7.1% and the “DPM (3H-ES uptake by OATP1B1)” value (hOATP1B1; inhibitor 0.1 μM) was 15255.0±875.8 DPM. For the same compound, the “Transport activity of OATP1B1 (main text: percentage inhibition)” value (hOATP1B1; inhibitor 0.1 μM) was 100.9±5.8%, the “DPM (3H-ES uptake by OATP1B1)” value (hOATP1B1; inhibitor 0.3 μM) was 16354.0±875.5 DPM and the “Transport activity of OATP1B1 (main text: percentage inhibition)” value (hOATP1B1; inhibitor 0.3 μM) was 108.1±5.8%. For the same compound, the “DPM (3H-ES uptake by OATP1B1)” value (hOATP1B1; inhibitor 1 μM) was 14584.0±689.5 DPM, the “Transport activity of OATP1B1 (main text: percentage inhibition)” value (hOATP1B1; inhibitor 1 μM) was 96.4±4.6% and the “DPM (3H-ES uptake by OATP1B1)” value (hOATP1B1; inhibitor 3 μM) was 13110.3±561.2 DPM. For the same compound, the “Transport activity of OATP1B1 (main text: percentage inhibition)” value (hOATP1B1; inhibitor 3 μM) was 86.7±3.7%, the “DPM (3H-ES uptake by OATP1B1)” value (hOATP1B1; inhibitor 10 μM) was 8070.3±754.4 DPM and the “Transport activity of OATP1B1 (main text: percentage inhibition)” value (hOATP1B1; inhibitor 10 μM) was 53.4±5.0%. For the same compound, the “DPM (3H-ES uptake by OATP1B1)” value (hOATP1B1; inhibitor 30 μM) was 5983.3±318.4 DPM.
